Test results taken from US4551453A, “2-(ω-Alkylaminoalkyl)- and 2-(ω-dialkylaminoalkyl-3-(4-X-benzylidene)-phthalimidines” (Laboratori Baldacci SpA, priority 1982, dated 1985).
Structures can show the parent of a compound that is named as a salt.

What was measured:
[1] = system: sciatic nerve of edible frog; assay: Test on the sciatic nerve of frog (inhibition of action potential); details: for times more powerful than procaine: sciatic nerve of frog, vs procaine; for times more active than lidocaine: deduced from frog sciatic nerve comparison with procaine and literature lidocaine/procaine ratio
Method: There was assessed the concentration of the tested substances (AL 12, AL 12 B and AL 5) capable of inhibiting or reducing the action potential of the sciatic nerve of edible frog after removal of a lenght of perinerium.
The stimulating device was sending maximum pulses of 0.1 msec of duration.
The reductions of the action potential after application of the substances were indicated as percentages of the initial action potential.
The comparison substance was procaine at the following concentrations: 0.4-0.6 and 0.8M

[2] = system: cellular line Hela of human fibroplasts; assay: DNA recovery test (non programmed synthesis of recovery DNA); format: cell-based; details: up to the concentration of 5 ml (so in the source)
Method: (§1) The compound AL 12 was subjected to the tests of genic mutation. All the tests used for such experiments were carried out and precisely:
(c) DNA recovery test, i.e. test of the non programmed synthesis of recovery DNA on the cellular line Hela of human fibroplasts.

vagal nerve of chicken = assay: Test of inhibition of the action potential of the vagal nerve of chicken; details: for IC50: parameter (b), stimulations higher than the maximum, read-out: ED 50, inhibition of the width of the action potential; for effects vs tetracaine: same molar concentrations as tetracaine
Text: For these tests two investigation parameters were selected:
(a) increase of the stimulating threshold necessary to induce the appearance of the action potential;
(b) inhibition of the potential width as induced by the supra maximum stimulation. AL 12 and AL 12 B were compared with the tetracaine.

[3] = Pharmacodynamic tests (overall local anesthetic activity comparison); details: AL 12 vs lidocaine, as it appears from the pharmacodynamic tests
Method: As regards the pharmacodynamic tests, they were carried out on the following compounds:
The local anesthetic power of these compounds was tested in comparison with procaine, xylocaine and tetracaine.

[4] = Lethality and toxicity for single dose (rat); details: in vivo, ip
Text: Lethality and toxicity for single dose

[5] = system: Schizosaccharomyces Pombe; assay: Test of genic mutation (forwardly); format: cell-based; details: up to the concentration of 5 ml (so in the source)
Method: as §1
(b) Test of genic mutation (forwardly) of Schizosaccharomyces Pombe, permitting the evaluation of every mutagenic event capable of varying the functionality of every 5 genes involved in the synthesis of adenine;

mice = details: i.v. route
rabbit cornea = assay: Test of the rabbit cornea; format: in vivo
Text: There were used amounts of AL 12 of 0.25-0.50-1.0% in comparison with amounts of 1% and 2% of xylocaine.

in vivo = details: mouse
Salmonella Typhymurium = assay: Ames test; format: cell-based; details: up to the concentration of 5 ml (so in the source)
Method: as §1
(a) Ames test using as the substrate a protocariote organism as Salmonella Typhymurium;

[6] = 60 day intramuscular toxicological study; format: in vivo, rats; details: rat, in vivo, im; rats, i.m., 60 days; read-out: dosage of first toxic alterations relative to single dose useful in the human being
Method: (§2) In order to shown the potential toxicity of the compound AL 12 B a toxicological study was programmed which either for the duration of the administration period (60 days), and for the route of introduction in the organism (intramuscular) and for the variety of used dosages (5-10-20 mg/kg) was surely suitable to indicate the possible toxicity of the substance.
(§3) It is pointed out that the lowest dose used in the test is already about 5 to 10 times higher than the single therapeutical dose, possibly used by infiltration in the human being. Male and female rats, having respectively a body weight of about 90 and 65 g, were divided in groups of 6-9 animals of the same sex and stalled in 2 to 3 animals per cage with water and food ad libitum.
(§4) The environment conditions were maintained constant at 24° C., moisture at night-day cycle.
(§5) The drug in apirogenic sterile solution was daily injected by intramuscolar route. At the end of the treatment the animals were anesthetized for the blood removal for the hematochemical and hematological examinations. The animals were than sacrificed and the weight of the single fresh organs was carefuly recorded. The hematochemical parameters which were taken into consideration were the following: glycemia, uricemia, alkaline phosphatase (ALP) malate dehydrogenase (MDH), acetylcholinesterase (CHE), SGPT, SGOT, L-y-glutamyltransferase (Y.G.T.), ornitincarbonyltransferase (O.C.T.), triocylglycerolacylhydrolase (Lipase), isocitratedehydrogenase (ICDH), sorbitole dehydrogenase (SDH), hydroxybutyrate dehydrogenase (HCDH), lactic dehydrogenase (LDHP), […] arylamidase (LAP), sodiemia, potassiemia, chloridemia, magnesiemia, calcemia, total tryglicerides, albumins, globulins, A/G total proteins, total cholesterole, amylasemia, creatininemia. Some hematological parameters were furthermore measured: red corpuscles, platelets, white corpusles, leucocitary form, hemoglobine.
(§6) The urinary parameters taken into consideration were, besides the 24 hour volume, azotemia, creatininuria, amylasuria, uricuria, calciuria, chlorides, sodium and potassium.
(§7) For the statistical evaluations of the weight of the fresh organs the analysis of the covariations was effected in order to eliminate the possible influences of the body weight onto the organ weight.
(§8) The hematological and hematochemical parameters were statistically balanced by means of the variancy analysis by taking into consideration all the gropus and the Student "t" amongst the single treated groups and the control group.
(§9) The homogeneity of the leucocitary form was investigated by the .chi.^2 test.

Male and female rats = assay: 60 day intramuscular toxicological study; format: in vivo; details: 60 days
Method: as §2, §3, §4, §5, §6, §7, §8, §9

[7] = system: sciatic nerve of edible frog; details: as unanimously stated in the literature; cited from earlier work
Wistar rats = assay: Subacute toxicity, 15 days intramuscular; details: 10 mg/kg AL 12 or lidocaine at equivalent molecular dose
Method: It was tested in two stocks of Wistar rats, in three groups each comprising 20 animals, (10 male and 10 female).
The injections were carried out by intramuscolar route in a point of the thigh for 15 days.

## CN(C)CCCN1C(=O)c2ccccc2C1=Cc1ccccc1 [AL 5, 3-benzylidene-2-(γ-dimethylaminopropyl)-phthalimidine hydrochloride]
[1]
  times more powerful than procaine: about 5 times

## CCN(CC)CCN1C(=O)c2ccccc2C1=Cc1ccc(OC)cc1 [AL 12, 3-(4-methoxybenzylidene)-2-(β-diethylaminoetyl)phthalimidine hydrochloride]
[2]
  induction of mutations, DNA recovery test: unable to induce mutations
Vagal nerve of chicken
  IC50: 8 nM
  effects vs tetracaine: almost perfectly superimposable to those of tetracaine
[3]
  local anesthetic activity: lidocaine is about n times less active than AL 12: about 4 times
[4]
  LD50: 52.5 mg/kg
[5]
  induction of mutations, genic mutation (forwardly): unable to induce mutations
mice
  acute toxicity, times higher in comparison with lidocaine: about 2.4 (2.37) times
Rabbit cornea; 0.25% AL 12
  duration of complete anesthesy: 30 min
Rabbit cornea; 0.25% AL 12 vs 4 times higher xylocaine
  duration of complete anesthesy vs xylocaine at a 4 times higher concentration: slightly lower
Rabbit cornea; 0.50% AL 12
  duration of the complete anesthesy: more than 90 minutes
Rabbit cornea; 0.50% AL 12 vs 2% xylocaine
  anesthetic power vs xylocaine at a 4 times higher dose: higher
In vivo; im
  LD50: 32.5 mg/kg
In vivo; iv
  LD50: 13.5 mg/kg
[1]
  times more active than lidocaine: 5-6 times
  times more powerful than procaine: about 11.5 times
Salmonella Typhymurium
  induction of mutations, Ames test: unable to induce mutations

## CCN(CC)CCN1C(=O)c2ccccc2C1=Cc1ccc(OC(C)=O)cc1 [AL 12B, 3-(4-acetoxybenzylidne)-2-(β diethylaminoethyl)-phthalimidine hydrochloride]
Vagal nerve of chicken
  effects vs tetracaine: almost perfectly superimposable to those of tetracaine
[6]
  selectivity ratio at 1440 h: 10
Male and female rats; 5 mg/kg i.m.
  all the investigated parameters: none appeared to be modified
Male and female rats; female, 10 mg/kg i.m.
  HBDG: increase
  LDH-P: increase
  globulins: increase
  urinary parameters, females: no alteration might be appreciated
Male and female rats; female, 20 mg/kg i.m.
  alterations in female animals: no alteriation might be appreciated
Male and female rats; male and female rats, 5-10-20 mg/kg i.m.
  body weight growth vs control: comparable with that of the control animals
Male and female rats; male and female, 10 mg/kg i.m.
  hematological parameters: None of the hematological parameters was modified
Male and female rats; male rats, 10-20 mg/kg i.m.
  body weight growth, males at higher dosages (not statistically significant): tendentially reduced
Male and female rats; male, 10 mg/kg i.m.
  albumins: reduction
  amylasuria: reduced
  glycemia: reduction
  spleen weight, males: slight increase
  urinary chloride: reduced
Male and female rats; male, 20 mg/kg i.m.
  weight of the spleen: increased
  weight of the suprarenal glands: increased
Male and female rats; male, found also in female, 10 mg/kg i.m.
  ALP (alkaline phosphatase): slight increase
Male and female rats; rats, 5-10-20 mg/kg i.m.
  dose-dependence of the observed modifications: none of the observed modifications, was shown to be dose-dependent
  overall toxicity: not particularly toxic
[1]
  times more active than lidocaine: about 4 times
  times more powerful than procaine: at least 8.5 times
[1]; sciatic nerve of edible frog, read-out: ED50 (reduction of action potential)
  IC50: 80 mM

## CCN(CC)CC(=O)Nc1c(C)cccc1C [lidocaine]
[7]
  local anesthetic activity, times higher than procaine: about 2.2 times
Wistar rats; all along the treatment period
  food consumption and diuresis: normal
Wistar rats; intramuscular, 15 days
  all the other functions: remained unchanged
  autoptic examination: Nothing out of the rule was observed
  loss of functionality of the injected leg, duration: about one
  weight of the organs vs control animals: did not differ from that of the control animals

## CCCCNc1ccc(C(=O)OCCN(C)C)cc1 [tetracaine, reference compound]
Vagal nerve of chicken
  IC50: 8 nM

## CCN(CC)CC(=O)Nc1c(C)cccc1C [xylocaine, reference compound]
Rabbit cornea; 2% xylocaine
  duration of the complete anesthesy: 60 min
